The values below are quoted from earlier work in patent publication US20140212465A1, “TREATMENT AND PREVENTION OF DENTAL PATHOLOGY IN HUMANS AND NON-HUMAN ANIMALS” (priority 2011, published 2014).

The conditions of the data set: aqueous environment.

The structures appear in SMILES notation.

For `[Ca+2].[OH-].[OH-]` [calcium hydroxide], the pH is listed as 12.5.
